The text below walks through data of publication PMC9555310, “Novel inhibitors and activity-based probes targeting serine proteases” (Frontiers in Chemistry, 2022).

Where “and” joins values, the source holds several entries; their conditions need not be identical. Identical values can stand only once. Like-named read-outs stand apart in the source and are kept apart here.

Experiment [1] concerns the target T1, chymotrypsin (Bos taurus, UniProt P00766).
T1 construct: purchased Sigma-Aldrich (supplement); Calbiochem; host or cells: bovine pancreas
Kind of experiment: Off-target study, residual activity after 2 min pre-incubation: chymotrypsin. It counts as biochemical, bovine. The note with it: highest concentration (50 μM); 2 min incubation, PBS pH 7.4, 37°C. How it is done:
(§1) FIGURE 5 Results of “off-target“ studies. NAP849 (A), NAP800 (B) and NAP830 (C) were tested against trypsin, chymotrypsin, and NE. Samples (approx. 0.01 μg) of each protease were incubated with the indicated concentrations of test compound for 2 min, in PBS, pH 7.4, at 37°C. (D) NAP858, NAP962 and NAP849 were tested against cathepsin B at the indicated concentrations in 0.1 M MES, pH 6.1, containing 1 mM EDTA, for 2 min, at 37°C. Aliquots (approx. 10 μL) of each incubation sample were then added to a fresh sample (990 μL) of PBS for the serine proteases and MES for cathepsin B, containing the appropriate substrate for each protease, to measure their residual activity. Controls incubations were performed in the absence of test compound, but in the presence of an appropriate volume of DMF vehicle used to prepare stock solutions of each inhibitor under study.
(§2) Two elements were investigated regarding possible “off-target” effects–determining the extent of cross-reactivity of each of the new putative ABPs between the various serine protease family members and assessing their collateral inhibitory action against another mechanistic class–the cysteine proteases, using cathepsin B (CTSB) as an exemplar.
(§3) For assays requiring a pre-incubation step enzyme and inhibitor in assay buffer were incubated together, at 37 °C, for 2 min, with gentle agitation. The reaction mixture was then aliquoted (50 μL) in duplicate on a black 96-well microtitre plate followed by addition of substrate to make a final concentration of 50 μM in a total volume of 100 μL. The fluorescence production was then measured as described for the previous procedure.
(§4) Figure ST1. Results of “off-target” studies. NAP559 and NAP533 were tested against chymotrypsin, and NE. Samples (approx. 0.01 mg) of each protease were incubated with the indicated concentrations of test compound for 2 min, in PBS, pH 7.4, at 37 °C. Aliquots (approx. 10 µL) of each incubation sample were then added to a fresh sample (990 µL) of PBS containing the appropriate substrate for each protease, to measure their residual activity. Controls incubations were performed in the absence of test compound, but in the presence of an appropriate volume of DMF vehicle used to prepare stock solutions of each inhibitor under study.

The target in a further experiment is T2, plasmin (Homo sapiens, UniProt P00747).
T2 construct: purchased Sigma-Aldrich (supplement); R&D Systems; host or cells: human plasma
T2 sequence (P00747 581-810 limits assumed): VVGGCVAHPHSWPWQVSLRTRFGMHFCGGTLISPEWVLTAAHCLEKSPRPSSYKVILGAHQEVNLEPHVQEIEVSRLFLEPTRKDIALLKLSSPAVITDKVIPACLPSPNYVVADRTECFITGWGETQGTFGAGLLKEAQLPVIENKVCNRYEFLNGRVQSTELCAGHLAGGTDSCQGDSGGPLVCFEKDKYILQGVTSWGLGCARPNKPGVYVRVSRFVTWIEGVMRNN
T2 sequence (P00747 97-580 partner limits assumed): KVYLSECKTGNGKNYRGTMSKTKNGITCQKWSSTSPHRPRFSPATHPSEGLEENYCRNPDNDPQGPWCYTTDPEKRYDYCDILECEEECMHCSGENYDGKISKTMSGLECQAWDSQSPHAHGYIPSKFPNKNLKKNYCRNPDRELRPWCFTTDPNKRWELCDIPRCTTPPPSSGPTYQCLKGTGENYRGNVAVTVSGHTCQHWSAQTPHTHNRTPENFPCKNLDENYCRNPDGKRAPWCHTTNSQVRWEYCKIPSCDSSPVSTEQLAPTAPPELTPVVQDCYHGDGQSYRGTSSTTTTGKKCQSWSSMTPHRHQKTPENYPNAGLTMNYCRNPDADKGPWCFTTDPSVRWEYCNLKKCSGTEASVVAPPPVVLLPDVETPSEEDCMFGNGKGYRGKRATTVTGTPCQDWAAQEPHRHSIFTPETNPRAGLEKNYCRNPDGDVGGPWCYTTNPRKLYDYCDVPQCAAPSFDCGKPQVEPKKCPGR
Put plainly: Irreversible inhibition kinetics of plasmin (fluorogenic substrate progress curves). In kind it is biochemical. The note with it: PBS pH 7.4, 37°C, mean ± SD (n=2). How it is done: A range of inhibitor concentrations were prepared from a 10 mM stock solution of the test compounds (NAP533, NAP559, NAP800, NAP830, NAP849, and NAP962) in N, N-dimethylformamide (DMF). Recombinant protease activities were assayed using the cognate fluorogenic substrates as follows: trypsin (Z-Gly-Gly-Arg-NHMec), thrombin (Boc-Val-Pro-Arg-NHMec), plasmin (Boc-Val-Leu-Lys-NHMec), human neutrophil elastase (MeO-Succinyl-Ala-Ala-Pro-Val-NHMec), and chymotrypsin (Succinyl-Ala-Ala-Pro-Phe-NHMec). Each substrate was used at a final concentration of 50 μM, in the appropriate buffer for each protease. All inhibition assays were performed in microtiter plates maintained at 37°C in a final volume of 100 μL. The reaction was initiated by the addition of each protease (approx. 0.01 μg/well) and the rate of substrate hydrolysis was recorded continuously at 37°C, over a 60 min period, by measuring the rate of increase in fluorescence (at λex 360 nm, λem 480 nm) using a FLUOstar Optima microplate reader (BMG Labtech).
The resultant inhibition progress curves obtained for each inhibitor were analyzed by the kinetic models developed by [Tian and Tsou (1982)] and [Walker and Elmore (1984)], for irreversible inhibitors, with curve fitting being achieved using GraFit (Erithacus Software), as described previously ([Ferguson et al., 2016]).
FIGURE 4 Progress curves for (A), chymotrypsin-catalysed hydrolysis of Succinyl-Ala-Ala-Pro-Phe-NHMec, in the presence of varying concentrations of NAP849. (B), NE-catalysed hydrolysis of MeO-succinyl-Ala-Ala-Pro-Val-NHMec, in the presence of varying concentrations of NAP800. (C) Trypsin-catalysed of Z-Gly-Gly-Arg-NHMec, in the presence of NAP830. (D) Plasmin-catalysed hydrolysis of Boc-Val-Leu-Lys-NHMec, in the presence of varying concentrations of NAP962. Assays were carried out in PBS, pH 7.4, at 37°C, in the presence of a range of inhibitor concentrations (0.25–50 μM) and a fixed concentration (50 μM) of the appropriate substrate for each protease.
The “product progress” curves for substrate hydrolysis in the presence of an inhibitor (Figure 4) are indicative of the action of irreversible inhibitors operating through the kinetic scheme illustrated in Figure 6. In this scheme, the formation of the reversible enzyme–inhibitor complex (EI) is zcharacterized by the inhibitor constant K i. This is converted into the covalent/irreversible complex (E-I) characterized by a first-order rate constant k 3. The overall second-order rate constant for the inactivation of E by I is given by the ratio k 3/K i ([Walker and Elmore, 1984]; [Tsou, 1988]).
Fluorogenic enzyme assays were carried out on a FLUOstar OPTIMA spectro-fluorimeter (BMG Labtech) with analysis performed on MARS Data Analysis Software (BMG Labtech). Black 96-well microtitre plates were supplied by Thermo Scientific. Trypsin from porcine pancreas, plasmin from human plasma and chymotrypsin from bovine pancreas were obtained from Sigma-Aldrich. Thrombin and Cathepsin B were supplied by R and D Systems. Human Neutrophil Elastase was supplied by Calbiochem. Fluorogenic substrates Z-Gly-Gly-Arg-NHMec, Succinyl-Ala-Ala-Pro-Phe-NHMec and MeO-Succinyl-Ala-Ala-Pro-Val-NHMec were supplied by Sigma-Aldrich. Boc-Val-Pro-Arg-NHMec was obtained from R and D Systems and Boc-Val-Leu-Lys-NHMec was supplied by PeptaNova. Phosphate Buffered Saline tablets were acquired from Sigma- Aldrich.
Protease inactivation by each of the compounds under study was evaluated using a fluorogenic enzyme assays. Protease-substrate combinations used as detailed in Section 2. Inhibitors were made up as 10 mM stock solutions in either DMF or DMSO, then diluted with PBS (pH 7.4) to give appropriate working concentrations. A final volume of 100 μL was used per well. Substrate (50 μM final concentration) was added to a black 96-well microtitre plate (Thermo Scientific), in duplicate, followed by addition of inhibitor, in such a manner to give the required final concentration. […]

The next experiment deals with T3, neutrophil elastase (NE) (Homo sapiens, UniProt P08246).
T3 construct: purchased Calbiochem
T3 sequence (P08246 30-267): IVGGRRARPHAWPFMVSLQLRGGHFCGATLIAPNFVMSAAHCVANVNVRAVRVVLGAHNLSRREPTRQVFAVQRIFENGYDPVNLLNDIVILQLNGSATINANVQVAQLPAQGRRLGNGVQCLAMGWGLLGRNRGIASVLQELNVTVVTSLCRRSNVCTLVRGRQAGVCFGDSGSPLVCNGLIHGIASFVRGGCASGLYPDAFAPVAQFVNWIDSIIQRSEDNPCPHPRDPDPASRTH
Put plainly: Off-target study, residual activity after 2 min pre-incubation: NE. It counts as biochemical. Particulars: highest concentration (50 μM); 2 min incubation, PBS pH 7.4, 37°C. As for the experimental part:
as §1, §2, §3, §4

Another experiment addresses T4, thrombin (Homo sapiens, UniProt P00734).
T4 construct: apparent molecular mass of 31 kDa, corresponding to the heavy (catalytic) chain of the protease; purchased R&D Systems
Put plainly: Activity-based profiling of thrombin (SDS-PAGE, streptavidin-HRP western blot). In kind it is binding. Particulars: 30 min, 37°C; heavy (catalytic) chain; recapitulated in Figure 8B. As for the experimental part:
Samples of recombinant protease (trypsin, plasmin, thrombin, chymotrypsin, or HNE, as indicated in the relevant figure legends) were treated with each of the newly synthesized compounds at a concentration of 50 μM, for 30 min, at 37°C. A control sample (no ABP) was prepared by treating the recombinant protease with solvent vehicle (DMF) only, used to prepare the stock solution of each ABP. Samples were also pre-treated (±90°C for 30 min) before being incubated with each putative ABP. With trypsin and thrombin, further samples were prepared where Z-Arg^P-(OPh)2 or NAP559, respectively, was added 30 min prior to the addition of the ABP under examination. All treated samples were then denatured with SDS containing reducing treatment buffer (10 min at 95°C), followed by resolution by SDS-PAGE and subjected to Western blotting. Resolved proteins were then transferred onto the nitrocellulose membrane and labeled with streptavidin-HRP. The ABP–protease complex was then visualized following treatment with Luminata Forte HRP substrate.
FIGURE 8 Activity Based Profiling of Trypsin-like serine proteases. (A) trypsin was treated (±) with NAP830, for 30 min, at 37°C (± pretreatment with Z-Arg^P-(OPh)2). (B) thrombin (1 […]) was pre-treated with various concentrations of NAP559 (30 min, at 37°C) followed by treatment (±) with NAP858 for 30 min, at 37°C. (C) Plasmin was treated in turn with QUBTL1, NAP962 and NAP830, (± pre-heat inactivation at 95°C, for 10 min) for 30 min, at 37°C. […]
Following transfer, the extra protein binding sites on the membrane were blocked by addition of 3% (w/v) BSA in TBST (20 mM Tris, 137 mM NaCl, 1% (v/v) Tween 20, pH 7.6) and agitated gently at room temperature for 30 minutes. The biotin-labelled proteases were then detected by addition of Streptavidin-HRP (Vector Laboratories) in 3% (w/v) BSA in TBST at a concentration of 1:20000, for 1 hour at room temperature. […]
A general note: A western blot detects proteins with antibodies after separation by electrophoresis.

Another experiment has as its target T5, cathepsin B (CTSB) (Homo sapiens, UniProt P07858).
T5 construct: purchased R and D Systems
Kind of experiment: Off-target study, residual activity after 2 min pre-incubation: cathepsin B. In kind it is biochemical. Particulars: 25 and 50 μM, 0.1 M MES pH 6.1, 1 mM EDTA, 37°C. As for the experimental part: as §1, §2, §3
Assays with Cathepsin B required a pre-activation step of the protease prior to use in the fluorogenic enzyme assays. Cathepsin B was diluted to 10 μg/ml in activation buffer (0.1 M MES, pH 6.1, containing 1 mM EDTA and 2 mM DTT) and left to stand at room temperature for 15 minutes. Activated Cathepsin B was then diluted (1:50 to give 10 ng/50 μl) with assay buffer (activation buffer minus the DTT) prior to use as described previously.

Another experiment has as its target T6, trypsin (Sus scrofa, UniProt P00761).
T6 construct: purchased Sigma-Aldrich; host or cells: porcine pancreas
The note with it: cited from earlier work.

The target of experiment [2] is T1, chymotrypsin. Further details: method as in Gilmore et al. (2009). Particulars: ref Gilmore et al. (2009); cited from earlier work.

T6 sequence (P00761 9-231): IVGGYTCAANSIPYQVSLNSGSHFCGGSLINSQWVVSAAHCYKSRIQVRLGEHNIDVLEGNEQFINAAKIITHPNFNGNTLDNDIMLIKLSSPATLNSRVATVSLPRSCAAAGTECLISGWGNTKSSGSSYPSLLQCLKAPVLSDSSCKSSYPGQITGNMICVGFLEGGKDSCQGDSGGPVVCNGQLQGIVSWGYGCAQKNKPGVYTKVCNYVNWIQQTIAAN

On to `CC(C)[C@H](NC(=O)CN(Cc1ccccc1)C(=O)CN(CCCCN)C(=O)ON1C(=O)CCC1=O)C(N)=O` [NAP533, Succinimidoyl-CO-NLys-NPhe-Val-NH2], for which the inhibition of chymotrypsin at chymotrypsin [1] is < 5 % of control. Besides, the Ki at plasmin (Boc-Val-Leu-Lys-NHMec 50 μM) was determined as 2200 nM. Besides, the “k 3” value at plasmin (first-order rate constant) is given as 0.4 (± 0.04) min^−1. Moreover, at plasmin (second-order rate constant of inactivation), the “k 3 / K i” value was 1.7 (± 0.3) × 10^5 M^−1 min^−1. On neutrophil elastase (NE), the “inhibition of NE” value is recorded as < 5 % of control.
For `N=C(N)NCCCN(CC(=O)NCC(=O)NCC(=O)NCCCOCCOCCOCCCNC(=O)CCCCC1SCC2NC(=O)NC21)C(=O)ON1C(=O)CCC1=O` (stereo not shown) [NAP858], the “labelling of thrombin by ABP (western blot)” value at thrombin was “detection of a band with an apparent molecular mass of 31 kDa”. Further, the “inhibitory activity against CTSB” value at cathepsin B (CTSB) is on record as “none of the three carbamates tested exhibited any inhibitory activity against CTSB”. For the same compound, at trypsin (ref Ferguson et al. (2022)), the “k 3” value was 0.5 (+ 0.1) min^−1; the “k 3 / K i” value was 34300 M⁻¹ s⁻¹ and 35000 M⁻¹ s⁻¹.
Take `O=C(CCCCC1SCC2NC(=O)NC21)NCCCOCCOCCOCCCNC(=O)CCC(=O)NC(Cc1ccccc1)P(=O)(Oc1ccccc1)Oc1ccccc1` (stereo not shown) [QUBCL1, biotin-PEG-succinyl-Phe^P-(OPh)2]: at chymotrypsin [2], the Ki is 1080 nM, the “k 3” value was 0.119 min⁻¹ and the “k 3 / K i” value was 1850 M⁻¹ s⁻¹.
On to “Biotin-PEG-Succinyl-Lys^P-(OPh)2 [QUBTL2]”, for which, at trypsin (ref Martin and Walker (2017)), the “k 3 / K i” value is 18300 M⁻¹ s⁻¹.
